Like-named read-outs stand apart in the source and are kept apart here.
Columns and labels:
[1] = system: culture filtrate prepared from an enteropathogenic strain of E. coli; settings: piglets; for Mean Scour Score ± SEM drug treated: score 0 - 3
[2] = system: culture filtrate prepared from an enteropathogenic strain of E. coli; type: in vivo; settings: infant mice
[3] = system: Heat stable E. coli enterotoxin from E. coli strain pl6; settings: 100 µg/kg
[4] = 1 mg/kg po., duration of test 6 h
[5] = 1 mg/kg po., duration of test 12 h
[6] = 10 mg/kg po., duration of test 12 h
[7] = 2 x 5 mg/kg po., duration of test 12 h
[8] = 1 mg/kg p.o., 45 mins prior to challenge
[9] = 5 mg/kg p.o., 45 mins prior to challenge
[10] = 10 mg/kg p.o., 45 mins prior to challenge
[11] = 20 mg/kg p.o., 45 mins prior to challenge
[12] = 100 mg/kg p.o., 45 mins prior to challenge

CNCC(O)c1ccc(O)c(O)c1.O=C(O)C(O)C(O)C(=O)O (stereo not shown) [Adrenaline Bitartrate]
% Inhibition of Scour [1, 4]: 11%
Mean Scour Score ± SEM drug treated [1, 4]: 2.0 ± 0.2
% Inhibition of Scour [1, 5]: 16%
Mean Scour Score ± SEM drug treated [1, 5]: 1.8 ± 0.1
% Inhibition of Scour [1, 6]: 98%
Mean Scour Score ± SEM drug treated [1, 6]: 0 ± 0
% Inhibition of Scour [1, 7]: 96%
Mean Scour Score ± SEM drug treated [1, 7]: 0.1 ± 0.1
% Inhibition [2, 8]: 37%
% Inhibition [2, 9]: 36%
% Inhibition [2, 10]: 58%
% Inhibition [2, 11]: 70%
% Inhibition [2, 12]: 96%

CNCC(O)c1ccc(O)c(O)c1 (stereo not shown) [Adrenaline]
% Inhibition ([2]; 0.5 mg/kg p.o., 45 mins prior to challenge): 8%
% Inhibition [2, 8]: 18%
% Inhibition [2, 9]: 54%
% Inhibition [2, 10]: 54%
% Inhibition [2, 11]: 69%
% Inhibition [2, 12]: 101%
Secretion/(ml/30 min) (mean ± SEM [n=10) ([3]; time 0-30 min after toxin (before drug; drug administered 30 min after toxin)): 31 ± 3 ml/30 min
Secretion/(ml/30 min) (mean ± SEM [n=10) ([3]; time 30-60 min after toxin): 10 ± 1 ml/30 min
Secretion/(ml/30 min) (mean ± SEM [n=10) ([3]; time 60-90 min after toxin): 8 ± 2 ml/30 min
Secretion/(ml/30 min) (mean ± SEM [n=10) ([3]; time 90-120 min after toxin): 6 ± 2 ml/30 min
Secretion/(ml/30 min) (mean ± SEM [n=10) ([3]; time 120-150 min after toxin): 8 ± 3 ml/30 min
Secretion/(ml/30 min) (mean ± SEM [n=10) ([3]; time 150-180 min after toxin): 7 ± 2 ml/30 min
Secretion/(ml/30 min) (mean ± SEM [n=10) ([3]; time -30-0 min after toxin (before toxin and drug)): 3 ± 1 ml/30 min

C[C@H](N)[C@H](O)c1cccc(O)c1 [Metoraminol]
% Inhibition ([2]; 200 mg/kg p.o., 45 mins prior to challenge): 45%

NC[C@H](O)c1ccc(O)c(O)c1 [Noradrenaline]
% Inhibition ([2]; 10 mg/kg p.o., in 6mM ascorbate): 40%

— EP0059057A1 (priority 1981, dated 1982)
